Assay [1] concerns the target human GABAA α5β2γ1 receptor (Homo sapiens (Human), UniProt P31644+Q8N1C3). Description: Radioligand binding assay, [3H]RO7239181 competition, γ1-containing GABAA subtypes. The note with it: HEK293F membranes, mean of two determinations. The method, then: The affinity of compounds at GABAA γ1 subunit-containing receptors was measured by competition for [^3H]RO7239181 (67.3 Ci/mmol; Roche) binding to membranes from HEK293F cells (ThermoFisher R79007) expressing human (transiently transfected) receptors of composition α5β2γ1, α2β2γ1, α1β2γ1. For better protein expression of the α2 subunit-containing receptors, the 28 amino acid long signal peptide (Met1 to Ala28) of the human GABAA α2 subunit was substituted by the 31 amino acid long signal peptide (Met1 to Ser31) of human GABAA α5 subunit.
Harvested pellets from HEK293F cells expressing the different GABAA receptor subtypes were resuspended in Mannitol Buffer pH 7.2-7.4 (Mannitol 0.29M, Triethylamine 10 mM, Acetic acid 10 mM, EDTA 1 mM plus protease inhibitors (20 tablets Complete, Roche Diagnostics Cat. No. 05 056 489 001 per liter)), washed two times and then resuspended at 1:10 to 1:15 dilution in the same buffer. Cell disruption was performed by stirring the suspension in a Parr vessel #4637 at 435 psi for 15 minutes, and then the suspensions were centrifuged at 1000×g for 15 minutes at 4° C. (Beckman Avanti J-HC; rotor JS)-4.2). The supernatant (S1) was transferred in a 21 Schott flask and the pellet (P1) was resuspended with Mannitol Buffer up to 175 ml. The resuspended pellet was transferred into a 250 ml Corning centrifugal beaker and centrifuged at 1500×g for 10 minutes at 4° C. (Beckman Avanti J-HC; rotor JS)-4.2). The supernatant (S1) was then transferred in the 21 Schott flask and the pellet was discarded. The supernatants (S1) were centrifuged in 500 ml Beckman polypropylene centrifugal beaker at 15,000×g for 30 minutes at 4° C. (Beckman Avanti J-20 XP; rotor JLA-10.500). The pellet (P2) was resuspended with Mannitol Buffer 1:1 and frozen at −80° C. The supernatant (S2) was centrifuged in 100 ml Beckman polypropylene centrifugal tubes at 48000×g for 50 minutes at […] (Beckman Avanti J-20 XP; rotor JA-18). The supernatant (S3) was discarded and the pellet (P3) was resuspended with 1:1 Mannitol Buffer. The P2 and P3 protein concentration was determined with the BIORAD Standard assay method with bovine serum albumin as standard and measured on the NANO-Drop 1000. The membrane suspension was aliquots (500 μl per tube) and stored at −80° C. until required.
Membrane homogenates were resuspended and polytronised (Polytron PT1200E Kinematica AG) in Potassium Phosphate 10 mM, KCl 100 mM binding buffer at pH 7.4 to a final assay concentration determined with a previous experiment.
Radioligand binding assays were carried out in a volume of 200 µL (96-well plates) which contained 100 μL of cell membranes, [^3H]RO7239181 at a concentration of 1.5 nM (α5β2γ1) or 20-30 nM (α1β2γ1, 2β2γ1) and the test compound in the range of [0.3-10000]×10^−9 M. Nonspecific binding was defined by 10×10^−6 (α5β2γ1) and 30×10^−6 M RO7235136 and typically represented less than 5% (α5β2γ1) and less than 20% (α1β2γ1, α2β2γ1) of the total binding. Assays were incubated to equilibrium for 1 hour at 4° C. and then, membranes were filtered onto unifilter (96-well white microplate with bonded GF/C filters preincubated 20-50 minutes in 0.3% Polyethylenimine) with a Filtermate 196 harvester (Packard BioScience) and washed 4 times with cold Potassium Phosphate 10 mM pH 7.4, KCl 100 mM binding buffer. After drying, filter-retained radioactivity was detected by liquid scintillation counting. K, values were calculated using Excel-Fit (Microsoft) and are the means of two determinations.
Representative test results, obtained by the above described assay measuring binding affinity to HEK293 cells expressing human (h) receptors, are shown in the Table 1.

Assay [2] addresses human GABAA α1β3γ2 receptor (Homo sapiens (Human), UniProt P14867+P18507). Description: Radioligand binding assay, [3H]Flumazenil competition, γ2-containing GABAA subtypes. The note with it: HEK293F membranes, [3H]Flumazenil 1 nM, mean of two determinations; read-out: Ki h-GABAA α1β3γ2. Put shortly: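 Competition with [3H]Flumazenil (81.1 Ci/mmol) for binding to HEK293F cells transiently expressing human α1β3γ2 receptors, prepared in Mannitol Buffer pH 7.2-7.4. Incubated 1 hour at 4° C to equilibrium, filtered, washed with ice-cold 50 mM Tris pH 7.5, counted by liquid scintillation. Ki values are means of two determinations.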

The target in assay [3] is human GABAA α1β2γ1 receptor (Homo sapiens (Human), UniProt P14867+Q8N1C3). In words: Radioligand binding assay, [3H]RO7239181 competition, γ1-containing GABAA subtypes. To be noted: HEK293F membranes, [3H]RO7239181 20-30 nM, mean of two determinations.
The target in assay [4] is human GABAA α2β2γ1 receptor (Homo sapiens (Human), UniProt P47869+Q8N1C3). The description is as above. The note with it: for Ki: HEK293F membranes, [3H]RO7239181 20-30 nM, mean of two determinations, read-out: Ki h-GABAA α2β2γ1; for γ2/γ1 Selectivity Ratio: Ki α1β3γ2 (nM)/Ki α2β2γ1 (nM); for LogSel: Log[Ki α1β3γ2 (nM)/Ki α2β2γ1 (nM)].

“And” between values parts separate entries of the source, which are not always exact repeats. Equal entries are not always repeated.

As usually defined, the Ki is a measure of affinity in units of concentration, obtained from inhibition or displacement. For `C[C@@H]1N=C(c2c(F)cccc2F)c2c(ccc(Cl)c2Br)-n2c(-c3ccn(C)n3)nnc21` [Example 81, (4S)-7-bromo-8-chloro-6-(2,6-difluorophenyl)-4-methyl-1-(1-methylpyrazol-3-yl)-4H-[1,2,4]triazolo[4,3-a][1,4]benzodiazepine], the Ki amounted to 0.0043 µM in assay [1], 1.56 µM in assay [2], 0.101 µM in assay [3] and 0.0363 µM in assay [4]. Also, in assay [4], the “γ2/γ1 Selectivity Ratio” value came to 43.0. Besides, the LogSel in assay [4] came to 1.63.
Consider `Cc1nnc2n1-c1ccc(Cl)c(Cl)c1C(c1c(F)cccc1F)=N[C@H]2C` [Example 82, (4S)-7,8-dichloro-6-(2,6-difluorophenyl)-1,4-dimethyl-4H-[1,2,4]triazolo[4,3-a][1,4]benzodiazepine], for which the inhibition constant (Ki) in assay [1] came out at 0.0006 µM; in assay [2], 0.261 µM; in assay [3] it was 0.0128 µM; in assay [4], 0.0106 µM. The “γ2/γ1 Selectivity Ratio” value in assay [4] was 24.6. Besides, in assay [4], the LogSel is given as 1.39.
With `C[C@@H]1N=C(c2ncccc2F)c2c(ccc(Br)c2Cl)-n2c(C3CC3)nnc21` [Example 83, (4S)-8-bromo-7-chloro-1-cyclopropyl-6-(3-fluoro-2-pyridyl)-4-methyl-4H-[1,2,4]triazolo[4,3-a][1,4]benzodiazepine], the Ki in assay [1] is 0.0027 µM; in assay [2], 0.853 µM; in assay [3], 0.128 µM; in assay [4], 0.0232 µM. Besides, in assay [4], the “γ2/γ1 Selectivity Ratio” value was determined as 36.8. Besides, the LogSel in assay [4] is recorded as 1.57.
As for `C[C@@H]1N=C(c2ncccc2F)c2c(ccc(Br)c2Cl)-n2cnnc21` [Example 84, (4S)-8-bromo-7-chloro-6-(3-fluoro-2-pyridyl)-4-methyl-4H-[1,2,4]triazolo[4,3-a][1,4]benzodiazepine], the Ki in assay [1] is 0.0065 µM; in assay [2], 1.21 µM; in assay [3] it was 0.0971 µM; in assay [4], 0.0713 µM. For the same molecule, in assay [4], the “γ2/γ1 Selectivity Ratio” value is 16.9. Besides, the LogSel in assay [4] was determined as 1.23.
On to `Cc1nnc2n1-c1ccc(Br)c(Cl)c1C(c1ncccc1F)=N[C@H]2C` [Example 85, (4S)-8-bromo-7-chloro-6-(3-fluoro-2-pyridyl)-1,4-dimethyl-4H-[1,2,4]triazolo[4,3-a][1,4]benzodiazepine], for which the inhibition constant Ki in assay [1] turned out to be 0.0033 µM; in assay [2], 0.705 µM; in assay [3], 0.0636 µM; in assay [4], 0.053 µM. Moreover, in assay [4], the “γ2/γ1 Selectivity Ratio” value came out at 13.3. In assay [4], this molecule gave a LogSel of 1.12.
For `Cc1ccc(-c2nnc3n2-c2ccc(Cl)c(Cl)c2C(c2c(F)cccc2F)=N[C@H]3C)nn1` [Example 86, (4S)-7,8-dichloro-6-(2,6-difluorophenyl)-4-methyl-1-(6-methylpyridazin-3-yl)-4H-[1,2,4]triazolo[4,3-a][1,4]benzodiazepine], the Ki in assay [1] was 0.0014 µM; in assay [2] it was 0.86 µM; in assay [3], 0.0059 µM; in assay [4] it was 0.0044 µM. The “γ2/γ1 Selectivity Ratio” value in assay [4] is 195.1 and 195. Further, the LogSel in assay [4] is 2.29 and 2.3.
Turning to `Cc1cc(-c2nnc3n2-c2ccc(Cl)c(Cl)c2C(c2c(F)cccc2F)=N[C@H]3C)on1` [Example 87, 5-[(4S)-7,8-dichloro-6-(2,6-difluorophenyl)-4-methyl-4H-[1,2,4]triazolo[4,3-a][1,4]benzodiazepin-1-yl]-3-methyl-isoxazole], the inhibitory constant (Ki) stood at 0.0021 µM in assay [1], 0.531 µM in assay [2], 0.008 µM in assay [3] and 0.0075 µM in assay [4]. In assay [4], the “γ2/γ1 Selectivity Ratio” value worked out at 70.9. In assay [4], this molecule had a LogSel of 1.85.
As to `Cc1ccc(-c2nnc3n2-c2ccc(Cl)c(Br)c2C(c2c(F)cccc2F)=N[C@H]3C)nn1` [Example 88, (4S)-7-bromo-8-chloro-6-(2,6-difluorophenyl)-4-methyl-1-(6-methylpyridazin-3-yl)-4H-[1,2,4]triazolo[4,3-a][1,4]benzodiazepine], the Ki in assay [1] is 0.0036 µM; in assay [2] it was 1.45 µM; in assay [3], 0.0345 µM; in assay [4] it was 0.0109 µM. In addition, the “γ2/γ1 Selectivity Ratio” value in assay [4] is 133.6. The molecule also came in with a LogSel in assay [4] of 2.13.
In the case of `C[C@@H]1N=C(c2c(F)cccc2F)c2c(ccc(Cl)c2Br)-n2c1n[nH]c2=O` [Example 89, (4S)-7-bromo-8-chloro-6-(2,6-difluorophenyl)-4-methyl-2,4-dihydro-[1,2,4]triazolo[4,3-a][1,4]benzodiazepin-1-one], the Ki in assay [1] is 0.0043 µM; in assay [2], 1.46 µM; in assay [3] it was 0.106 µM; in assay [4] it was 0.077 µM. Moreover, the “γ2/γ1 Selectivity Ratio” value in assay [4] came out at 19.0. This molecule also gave a LogSel in assay [4] of 1.28.
Take `Cc1nnc2n1-c1ccc(C(F)(F)F)c(Cl)c1C(c1c(F)cccc1F)=N[C@H]2C` [Example 92, (4S)-7-chloro-6-(2,6-difluorophenyl)-1,4-dimethyl-8-(trifluoromethyl)-4H-[1,2,4]triazolo[4,3-a][1,4]benzodiazepine]: the inhibition constant (Ki) in assay [1] was determined as 0.0018 µM; in assay [2], 2.23 µM; in assay [3], 0.0483 µM; in assay [4], 0.0219 µM. In addition, the “γ2/γ1 Selectivity Ratio” value in assay [4] is 102.0. In addition, in assay [4], the LogSel is recorded as 2.01.
Regarding `Cc1nnc2n1-c1ccc(C(C)(F)F)c(Cl)c1C(c1c(F)cccc1F)=N[C@H]2C` [Example 93, (4S)-7-chloro-8-(1,1-difluoroethyl)-6-(2,6-difluorophenyl)-1,4-dimethyl-4H-[1,2,4]triazolo[4,3-a][1,4]benzodiazepine], the Ki worked out at 0.0031 µM in assay [1], 5.96 µM in assay [2], 0.0851 µM in assay [3] and 0.0391 µM in assay [4]. Also, in assay [4], the “γ2/γ1 Selectivity Ratio” value worked out at 152.1. The LogSel in assay [4] is on record as 2.18.
For the molecule `Cc1cc(-c2nnc3n2-c2ccc(Cl)c(Cl)c2C(c2c(F)cccc2F)=N[C@H]3C)ncn1` [Example 94, (4S)-7,8-dichloro-6-(2,6-difluorophenyl)-4-methyl-1-(6-methylpyrimidin-4-yl)-4H-[1,2,4]triazolo[4,3-a][1,4]benzodiazepine], the inhibitory constant (Ki) in assay [1] is 0.002 µM; in assay [2] it was 0.609 µM; in assay [3], 0.0103 µM; in assay [4], 0.008 µM. Further, in assay [4], the “γ2/γ1 Selectivity Ratio” value is 76.4. In assay [4], this molecule returned a LogSel of 1.88.

These data come from patent US20240002393A1, “SUBSTITUTED BENZO[f][l ,2,4JTRIAZOL0[4,3-a][l ,4J[…] GABA A GAMMA! POSITIVE ALLOSTERIC MODULATORS” (Hoffmann-La Roche Inc., priority 2020, published 2024).
